Activity calls are given as the source filed them.
Tests used:
SUMO-activating enzyme = SUMO-activating enzyme (Homo sapiens, UniProt Q9UBT2); test: inhibitors of in vitro SUMOylation cascade, primary screen, biochemical, HTRF, uHTS (AID 2006); type: protein-complex assay
[1] = target: T1, Sentrin-specific protease 8 (Homo sapiens, UniProt Q96LD8); type: functional;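 further: kinetic enzyme assay of SENP8 cleaving a Nedd8 protein substrate, dose-response confirmation of screening hits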
T1 sequence (Q96LD8 whole entry): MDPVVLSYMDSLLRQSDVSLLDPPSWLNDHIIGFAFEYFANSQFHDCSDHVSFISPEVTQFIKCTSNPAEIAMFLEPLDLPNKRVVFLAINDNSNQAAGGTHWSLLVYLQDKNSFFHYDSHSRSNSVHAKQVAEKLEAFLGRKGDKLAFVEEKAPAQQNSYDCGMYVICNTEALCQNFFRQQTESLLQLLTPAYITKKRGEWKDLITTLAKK

Protein RecA = target: T2, Protein RecA (Mycobacterium tuberculosis, UniProt P9WHJ3); test: Fluorescence Cell-Free Homogeneous Dose Retest to Identify Inhibitors of RecA-Intein Splicing Activity. [Related pubchem assays (depositor defined):AID2097, AID2223, AID489010, AID492950]; type: functional
T2 sequence (P9WHJ3 whole entry): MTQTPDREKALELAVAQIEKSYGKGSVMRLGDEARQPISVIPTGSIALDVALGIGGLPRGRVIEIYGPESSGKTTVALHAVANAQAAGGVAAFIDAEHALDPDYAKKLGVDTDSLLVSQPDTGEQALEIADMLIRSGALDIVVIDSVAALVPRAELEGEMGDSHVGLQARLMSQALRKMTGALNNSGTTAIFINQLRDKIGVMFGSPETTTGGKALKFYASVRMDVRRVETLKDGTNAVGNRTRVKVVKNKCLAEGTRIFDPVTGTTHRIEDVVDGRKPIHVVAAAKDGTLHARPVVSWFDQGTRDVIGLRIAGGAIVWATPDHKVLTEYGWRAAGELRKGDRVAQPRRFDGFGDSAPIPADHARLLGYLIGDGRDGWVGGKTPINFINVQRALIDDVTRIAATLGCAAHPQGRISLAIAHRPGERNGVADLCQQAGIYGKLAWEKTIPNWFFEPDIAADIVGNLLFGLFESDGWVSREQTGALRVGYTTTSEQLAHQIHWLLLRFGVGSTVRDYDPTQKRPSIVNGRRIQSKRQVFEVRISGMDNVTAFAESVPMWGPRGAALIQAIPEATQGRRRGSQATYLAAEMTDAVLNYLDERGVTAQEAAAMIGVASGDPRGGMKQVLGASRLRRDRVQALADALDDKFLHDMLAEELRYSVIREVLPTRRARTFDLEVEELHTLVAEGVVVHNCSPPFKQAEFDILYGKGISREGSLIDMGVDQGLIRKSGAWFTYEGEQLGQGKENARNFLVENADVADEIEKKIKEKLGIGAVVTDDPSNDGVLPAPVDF

[2] = target: cAMP-dependent protein kinase catalytic subunit PRKX (Homo sapiens, UniProt P51817); type: functional
cAMP-dependent protein kinase catalytic subunit PRKX, sequence (P51817 whole entry): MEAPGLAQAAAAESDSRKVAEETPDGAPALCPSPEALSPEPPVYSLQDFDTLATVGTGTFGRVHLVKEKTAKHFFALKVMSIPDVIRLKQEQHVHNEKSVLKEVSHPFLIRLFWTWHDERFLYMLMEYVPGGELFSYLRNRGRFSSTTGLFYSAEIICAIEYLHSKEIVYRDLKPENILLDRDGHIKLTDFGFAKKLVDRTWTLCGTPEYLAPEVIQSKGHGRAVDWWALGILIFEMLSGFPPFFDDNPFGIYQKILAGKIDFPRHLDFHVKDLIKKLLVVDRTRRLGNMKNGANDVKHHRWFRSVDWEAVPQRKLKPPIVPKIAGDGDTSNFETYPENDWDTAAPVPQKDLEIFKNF

[3] = target: Tyrosine-protein kinase JAK3 (Homo sapiens, UniProt P52333); type: functional
Tyrosine-protein kinase JAK3, sequence (P52333 whole entry): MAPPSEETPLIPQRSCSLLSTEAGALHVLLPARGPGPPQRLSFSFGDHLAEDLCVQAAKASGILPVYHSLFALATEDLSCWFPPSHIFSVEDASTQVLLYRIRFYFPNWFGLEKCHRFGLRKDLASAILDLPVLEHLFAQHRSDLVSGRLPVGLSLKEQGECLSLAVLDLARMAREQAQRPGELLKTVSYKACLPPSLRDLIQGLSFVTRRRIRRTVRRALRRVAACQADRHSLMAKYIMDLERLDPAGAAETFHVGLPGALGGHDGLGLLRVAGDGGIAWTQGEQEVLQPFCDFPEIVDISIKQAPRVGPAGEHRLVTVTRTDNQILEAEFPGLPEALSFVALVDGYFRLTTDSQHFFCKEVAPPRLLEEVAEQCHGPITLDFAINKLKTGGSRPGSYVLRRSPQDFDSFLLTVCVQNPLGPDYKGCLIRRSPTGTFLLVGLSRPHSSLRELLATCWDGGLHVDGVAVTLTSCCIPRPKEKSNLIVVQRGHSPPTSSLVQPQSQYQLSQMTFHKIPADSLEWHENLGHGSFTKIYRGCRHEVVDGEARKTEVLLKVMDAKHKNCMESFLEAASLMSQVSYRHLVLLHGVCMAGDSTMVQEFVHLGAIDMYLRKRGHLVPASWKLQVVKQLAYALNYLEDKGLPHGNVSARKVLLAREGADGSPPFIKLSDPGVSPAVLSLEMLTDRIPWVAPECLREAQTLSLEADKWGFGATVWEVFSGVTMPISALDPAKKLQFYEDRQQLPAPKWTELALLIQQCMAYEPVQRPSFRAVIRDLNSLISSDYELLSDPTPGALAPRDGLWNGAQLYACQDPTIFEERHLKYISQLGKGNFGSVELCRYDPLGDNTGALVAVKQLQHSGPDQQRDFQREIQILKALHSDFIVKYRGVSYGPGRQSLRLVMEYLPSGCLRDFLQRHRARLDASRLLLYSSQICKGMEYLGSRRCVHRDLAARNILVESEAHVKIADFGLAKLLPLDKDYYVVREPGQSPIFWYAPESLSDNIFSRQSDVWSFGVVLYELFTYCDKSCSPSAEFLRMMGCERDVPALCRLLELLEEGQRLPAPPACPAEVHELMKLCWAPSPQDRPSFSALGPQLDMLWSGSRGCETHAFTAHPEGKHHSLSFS

[4] = target: Serine/threonine-protein kinase D3 (Homo sapiens, UniProt O94806); type: functional;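 further: determined within a kinase panel screen, with PRKCN as the panel member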
Serine/threonine-protein kinase D3, sequence (O94806 whole entry): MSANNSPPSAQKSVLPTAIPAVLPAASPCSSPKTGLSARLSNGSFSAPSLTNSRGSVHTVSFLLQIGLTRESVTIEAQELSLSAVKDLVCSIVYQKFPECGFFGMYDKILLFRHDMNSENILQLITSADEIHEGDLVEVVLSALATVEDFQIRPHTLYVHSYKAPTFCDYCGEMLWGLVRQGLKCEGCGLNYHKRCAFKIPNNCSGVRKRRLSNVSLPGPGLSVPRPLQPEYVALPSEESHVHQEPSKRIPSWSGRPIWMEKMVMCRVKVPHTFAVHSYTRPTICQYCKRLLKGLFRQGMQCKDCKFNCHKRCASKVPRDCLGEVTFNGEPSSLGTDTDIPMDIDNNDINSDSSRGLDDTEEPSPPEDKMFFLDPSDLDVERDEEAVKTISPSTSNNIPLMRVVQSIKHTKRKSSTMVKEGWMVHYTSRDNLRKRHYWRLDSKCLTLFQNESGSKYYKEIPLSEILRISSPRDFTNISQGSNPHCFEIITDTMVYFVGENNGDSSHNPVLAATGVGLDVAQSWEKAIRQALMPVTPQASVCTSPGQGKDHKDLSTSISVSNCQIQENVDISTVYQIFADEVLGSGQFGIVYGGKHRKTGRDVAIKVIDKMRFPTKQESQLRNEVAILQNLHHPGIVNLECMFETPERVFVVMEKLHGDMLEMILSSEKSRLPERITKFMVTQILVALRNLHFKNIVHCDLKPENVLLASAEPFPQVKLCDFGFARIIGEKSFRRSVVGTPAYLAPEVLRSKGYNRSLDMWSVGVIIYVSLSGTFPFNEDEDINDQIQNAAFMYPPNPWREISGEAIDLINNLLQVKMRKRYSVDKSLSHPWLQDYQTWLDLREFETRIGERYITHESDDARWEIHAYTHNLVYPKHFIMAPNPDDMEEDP

[5] = target: Rho-associated protein kinase 1 (Homo sapiens, UniProt Q13464); type: functional;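 further: measured within a broad kinome-wide panel profiling many kinases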
Rho-associated protein kinase 1, sequence (Q13464 whole entry): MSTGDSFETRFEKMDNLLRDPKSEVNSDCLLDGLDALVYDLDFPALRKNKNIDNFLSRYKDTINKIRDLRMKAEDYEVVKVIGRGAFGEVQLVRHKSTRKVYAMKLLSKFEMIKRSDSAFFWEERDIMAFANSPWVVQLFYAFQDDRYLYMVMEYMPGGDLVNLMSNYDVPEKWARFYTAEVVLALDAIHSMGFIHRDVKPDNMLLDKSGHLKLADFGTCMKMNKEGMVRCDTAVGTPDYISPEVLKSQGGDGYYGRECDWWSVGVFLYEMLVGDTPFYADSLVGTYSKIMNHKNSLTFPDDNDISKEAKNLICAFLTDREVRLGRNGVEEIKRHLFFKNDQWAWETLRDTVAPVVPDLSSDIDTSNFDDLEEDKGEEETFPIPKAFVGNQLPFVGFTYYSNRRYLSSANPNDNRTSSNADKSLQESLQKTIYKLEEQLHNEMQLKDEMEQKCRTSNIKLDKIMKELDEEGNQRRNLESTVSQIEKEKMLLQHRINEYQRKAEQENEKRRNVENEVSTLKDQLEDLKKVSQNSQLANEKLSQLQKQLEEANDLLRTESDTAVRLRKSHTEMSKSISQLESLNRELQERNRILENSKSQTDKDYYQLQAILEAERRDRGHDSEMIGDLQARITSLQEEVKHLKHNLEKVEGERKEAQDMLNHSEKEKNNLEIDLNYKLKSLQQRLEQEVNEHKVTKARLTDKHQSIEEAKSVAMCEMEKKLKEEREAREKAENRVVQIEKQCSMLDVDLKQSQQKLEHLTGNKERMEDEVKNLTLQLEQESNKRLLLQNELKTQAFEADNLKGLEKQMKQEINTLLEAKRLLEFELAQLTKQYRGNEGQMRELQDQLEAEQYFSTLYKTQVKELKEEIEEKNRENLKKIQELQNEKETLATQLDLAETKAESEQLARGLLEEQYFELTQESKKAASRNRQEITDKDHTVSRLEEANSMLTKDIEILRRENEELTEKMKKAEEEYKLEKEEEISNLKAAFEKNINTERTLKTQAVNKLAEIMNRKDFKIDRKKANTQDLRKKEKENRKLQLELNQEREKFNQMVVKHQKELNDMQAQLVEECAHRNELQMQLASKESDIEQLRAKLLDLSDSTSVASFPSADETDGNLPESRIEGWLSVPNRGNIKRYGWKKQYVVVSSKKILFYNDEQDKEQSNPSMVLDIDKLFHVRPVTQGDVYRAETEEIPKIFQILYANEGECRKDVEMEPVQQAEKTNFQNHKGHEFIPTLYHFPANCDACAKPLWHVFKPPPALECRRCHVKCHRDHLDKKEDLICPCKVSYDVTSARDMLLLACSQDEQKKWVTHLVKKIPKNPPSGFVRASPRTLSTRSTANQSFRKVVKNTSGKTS

[6] = target: Tyrosine-protein kinase Lck (Homo sapiens, UniProt P06239); type: functional;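 further: lck was assayed as one member of a kinase panel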
[7] = target: T3, 1-phosphatidylinositol 4,5-bisphosphate phosphodiesterase beta-3 (Homo sapiens, UniProt Q01970); test: Fluorescence-based biochemical high throughput dose response assay to identify inhibitors of phospholipase C isozymes (PLC-B3).
T3 sequence (Q01970 whole entry): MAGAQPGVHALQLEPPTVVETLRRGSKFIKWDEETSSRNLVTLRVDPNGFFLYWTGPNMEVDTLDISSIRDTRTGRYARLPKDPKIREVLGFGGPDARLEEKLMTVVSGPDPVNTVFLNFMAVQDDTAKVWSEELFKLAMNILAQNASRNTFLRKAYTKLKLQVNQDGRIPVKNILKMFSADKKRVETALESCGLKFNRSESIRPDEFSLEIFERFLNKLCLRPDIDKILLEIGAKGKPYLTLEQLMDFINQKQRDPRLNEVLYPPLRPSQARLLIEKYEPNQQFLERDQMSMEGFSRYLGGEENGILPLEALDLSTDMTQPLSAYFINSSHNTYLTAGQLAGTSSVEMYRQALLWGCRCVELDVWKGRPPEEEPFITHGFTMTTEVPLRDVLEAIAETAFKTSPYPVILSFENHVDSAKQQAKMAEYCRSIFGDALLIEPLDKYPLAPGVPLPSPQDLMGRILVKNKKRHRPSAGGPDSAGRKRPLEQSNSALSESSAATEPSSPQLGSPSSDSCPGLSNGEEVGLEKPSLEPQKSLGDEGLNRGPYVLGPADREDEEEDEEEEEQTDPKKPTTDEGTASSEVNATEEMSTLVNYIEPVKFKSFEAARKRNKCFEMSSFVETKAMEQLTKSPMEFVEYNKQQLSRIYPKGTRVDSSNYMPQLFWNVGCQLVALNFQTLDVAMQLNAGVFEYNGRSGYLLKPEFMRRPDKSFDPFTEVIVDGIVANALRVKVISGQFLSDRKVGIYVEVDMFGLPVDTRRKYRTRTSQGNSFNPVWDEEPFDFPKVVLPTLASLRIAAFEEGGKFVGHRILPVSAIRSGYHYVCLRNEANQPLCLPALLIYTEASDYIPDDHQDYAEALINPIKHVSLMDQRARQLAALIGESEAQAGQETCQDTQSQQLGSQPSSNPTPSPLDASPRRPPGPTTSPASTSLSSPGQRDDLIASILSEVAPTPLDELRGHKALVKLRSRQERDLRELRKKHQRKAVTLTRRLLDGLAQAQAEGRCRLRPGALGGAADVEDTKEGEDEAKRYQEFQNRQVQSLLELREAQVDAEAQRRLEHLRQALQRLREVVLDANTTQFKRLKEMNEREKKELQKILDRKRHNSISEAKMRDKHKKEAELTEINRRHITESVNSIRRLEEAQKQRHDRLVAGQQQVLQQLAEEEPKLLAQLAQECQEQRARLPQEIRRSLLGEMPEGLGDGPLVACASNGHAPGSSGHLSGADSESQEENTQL

[8] = target: Intestinal-type alkaline phosphatase (Homo sapiens, UniProt P09923); test: activation of human intestinal alkaline phosphatase – biochemical, dose response (AID 488873); type: functional

SUMO-activating enzyme, sequence (Q9UBE0 whole entry): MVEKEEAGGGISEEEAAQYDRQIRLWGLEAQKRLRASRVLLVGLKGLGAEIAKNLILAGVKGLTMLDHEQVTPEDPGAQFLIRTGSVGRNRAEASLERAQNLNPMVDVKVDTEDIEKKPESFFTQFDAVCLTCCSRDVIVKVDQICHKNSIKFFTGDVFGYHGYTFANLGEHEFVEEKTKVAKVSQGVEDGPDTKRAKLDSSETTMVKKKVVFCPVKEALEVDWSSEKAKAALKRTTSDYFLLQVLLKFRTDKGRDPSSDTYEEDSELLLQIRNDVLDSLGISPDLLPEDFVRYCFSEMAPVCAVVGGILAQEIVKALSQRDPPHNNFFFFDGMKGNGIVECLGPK
SUMO-activating enzyme, sequence (Q9UBT2 whole entry): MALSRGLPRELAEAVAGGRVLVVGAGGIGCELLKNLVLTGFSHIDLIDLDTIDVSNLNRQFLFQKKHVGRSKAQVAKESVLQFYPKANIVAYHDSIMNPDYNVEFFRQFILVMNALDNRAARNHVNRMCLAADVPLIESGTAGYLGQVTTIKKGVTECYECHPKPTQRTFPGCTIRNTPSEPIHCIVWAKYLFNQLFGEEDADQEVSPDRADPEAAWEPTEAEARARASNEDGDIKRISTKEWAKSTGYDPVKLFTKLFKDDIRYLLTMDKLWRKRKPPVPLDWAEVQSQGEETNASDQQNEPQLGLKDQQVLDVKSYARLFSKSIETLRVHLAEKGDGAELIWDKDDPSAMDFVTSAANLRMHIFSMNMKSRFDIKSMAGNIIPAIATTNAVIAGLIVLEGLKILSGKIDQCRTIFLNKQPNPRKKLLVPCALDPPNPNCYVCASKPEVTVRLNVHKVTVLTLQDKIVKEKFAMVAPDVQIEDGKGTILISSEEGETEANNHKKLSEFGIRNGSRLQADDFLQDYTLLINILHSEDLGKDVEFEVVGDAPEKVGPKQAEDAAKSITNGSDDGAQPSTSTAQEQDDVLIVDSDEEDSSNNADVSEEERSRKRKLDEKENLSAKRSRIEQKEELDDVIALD

With CC(=O)N(C1=C(Cl)C(=O)c2ccccc2C1=O)c1ccc(C(=O)O)cc1 the IC50 (SUMO-activating enzyme) was 17.3 µM (active).

In the case of CC1(C)C=C2C(=NN(c3ccccc3)C(N)=C2C#N)CO1, the IC50 [1] is reported as 0.0173 µM (active) and the EC50 (Protein RecA) is reported as 0.297 µM (active).

Cc1ccc(-c2cc3nc(Br)cnc3[nH]2)cc1 was tested, and the Ki [2] was > 3.16 µM (inactive), the Ki [3] was > 5.01 µM (inactive) and the Ki [4] was > 3.98 µM (inactive). For the same compound, the Ki [5] was > 3.98 µM (inactive) and the Ki [6] was > 6.31 µM (inactive).

O=C1C=C(O)c2c(O)cc(O)c(O)c2C1=O was tested, and the IC50 [7] was > 122 µM (inactive) and the EC50 [8] was > 100 µM (inactive).

Source: ChEMBL document CHEMBL1201862, “PubChem BioAssay data set” (2004)
